Reference: patent publication US10472364B2 (Calithera Biosciences, Inc., priority 2016, dated 2019)

These compounds were tested against endogenous, cell-bound CD73 on SK-MEL-28 cells (Homo sapiens (Human), UniProt P21589) (assay: Inhibition of endogenous, cell-bound CD73 enzyme activity in SK-MEL-28 cells (Malachite Green)). Details: 100 μM AMP, 30 minutes at room temperature.
Assay type: cell-based
Procedure: The day before the experiment, 5000 cells were plated per well in a 96-well plate. Cells were washed twice with […] reaction buffer (20 mM HEPES, pH 7.4, 125 mM NaCl, 1 mM KCl, 2 mM MgCl2, 10 mM glucose) to remove residual inorganic phosphate. After washing, assays contained serial dilutions of test compounds and 100 μM of AMP in a total volume of 200 μL reaction buffer, with a final DMSO concentration≤0.5%. After 30 minutes at room temperature, supernatant was removed from the cells. […] The concentration of inorganic phosphate was determined using a phosphate standard curve to determine IC50.

endogenous, cell-bound CD73 on SK-MEL-28 cells, sequence (P21589 27-574): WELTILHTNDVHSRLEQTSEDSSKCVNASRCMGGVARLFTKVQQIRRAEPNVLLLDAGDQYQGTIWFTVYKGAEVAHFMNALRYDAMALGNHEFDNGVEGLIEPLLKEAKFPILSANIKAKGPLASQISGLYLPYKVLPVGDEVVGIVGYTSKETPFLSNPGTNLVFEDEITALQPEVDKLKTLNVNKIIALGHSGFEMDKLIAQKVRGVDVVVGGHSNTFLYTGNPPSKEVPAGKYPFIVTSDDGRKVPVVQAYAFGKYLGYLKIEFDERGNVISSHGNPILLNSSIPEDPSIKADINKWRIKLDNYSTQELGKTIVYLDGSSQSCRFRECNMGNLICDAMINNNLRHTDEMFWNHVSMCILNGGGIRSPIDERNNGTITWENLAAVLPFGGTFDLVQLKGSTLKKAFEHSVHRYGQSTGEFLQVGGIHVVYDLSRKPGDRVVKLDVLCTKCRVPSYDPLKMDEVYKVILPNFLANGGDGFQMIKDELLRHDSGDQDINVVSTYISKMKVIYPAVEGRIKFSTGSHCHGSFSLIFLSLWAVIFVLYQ

Question: With `CCOC(=O)C(Cc1ccc(OC(F)(F)F)cc1)(OC[C@H]1O[C@@H](n2cnc3c(N)nc(Cl)nc32)[C@@H](F)[C@@H]1O)C(=O)O` (single isomer, unassigned) [compound 37] as the compound, how does the IC50 read?
Answer: Its IC50 is 0.598 µM.

Question: `CCOC(=O)C(Cc1ccc(OC(F)(F)F)cc1)(OC[C@H]1O[C@@H](n2cnc3c(N)nc(Cl)nc32)[C@@H](F)[C@@H]1O)C(=O)O` (single isomer, unassigned) [compound 38] was tested. Which IC50 did it give?
Answer: Its IC50 is 1.48 µM.

Question: Which IC50 does the source give for `COC(=O)C(Cc1ccc(-c2ccccc2)cc1)(OC[C@H]1O[C@@H](n2cnc3c(N)nc(Cl)nc32)[C@@H](F)[C@@H]1O)C(=O)O` (single isomer, unassigned) [compound 81] here?
Answer: Its IC50 is 2.11 µM.

Question: `COC(=O)C(Cc1ccc(-c2ccccc2)cc1)(OC[C@H]1O[C@@H](n2cnc3c(N)nc(Cl)nc32)[C@@H](F)[C@@H]1O)C(=O)O` (single isomer, unassigned) [compound 82] was tested. Which IC50 did it give?
Answer: The IC50 was 4.12 µM.

Question: With `Nc1nc(Cl)nc2c1ncn2[C@@H]1O[C@H](COC(Cc2ccccc2)(C(=O)O)C(=O)O)[C@@H](O)[C@@H]1F` [compound 6, 2-(((2R,3R,4S,5R)-5-(6-amino-2-chloro-9H-purin-9-yl)-4-fluoro-3-hydroxytetrahydro-furan-2-yl)methoxy)-2-benzylmalonic acid] as the compound, how does the IC50 read?
Answer: The IC50 was 0.489 µM.

Question: How did the IC50 turn out when `Nc1nc(Cl)nc2c1ncn2[C@@H]1O[C@H](COC(Cc2ccc(Cl)nc2)(C(=O)O)C(=O)O)[C@@H](O)[C@@H]1F` [compound 8, 2-(((2R,3R,4S,5R)-5-(6-amino-2-chloro-9H-purin-9-yl)-4-fluoro-3-hydroxytetrahydro-furan-2-yl)methoxy)-2-((6-chloropyridin-3-yl)methyl)malonic acid] was run?
Answer: The IC50 was 0.772 µM.

Question: For `Nc1nc(Cl)nc2c1ncn2[C@@H]1O[C@H](COC(Cc2cccc(Oc3ccccc3)c2)(C(=O)O)C(=O)O)[C@@H](O)[C@@H]1F` [compound 13, 2-(((2R,3R,4S,5R)-5-(6-amino-2-chloro-9H-purin-9-yl)-4-fluoro-3-hydroxytetrahydrofuran-2-yl)methoxy)-2-(3-phenoxybenzyl)malonic acid], which IC50 is on record?
Answer: Its IC50 is 2.19 µM.

Question: `Nc1nc(Cl)nc2c1ncn2[C@@H]1O[C@H](COC(Cc2cccc(OC(F)(F)F)c2)(C(=O)O)C(=O)O)[C@@H](O)[C@@H]1F` [compound 15, 2-(((2R,3R,4S,5R)-5-(6-amino-2-chloro-9H-purin-9-yl)-4-fluoro-3-hydroxytetrahydrofuran-2-yl)methoxy)-2-(3-(trifluoromethoxy)benzyl)malonic acid] was tested. Which IC50 did it give?
Answer: The IC50 was 1.58 µM.

Question: With `Nc1nc(Cl)nc2c1ncn2[C@@H]1O[C@H](COC(Cc2cccc(C(F)(F)F)c2)(C(=O)O)C(=O)O)[C@@H](O)[C@@H]1F` [compound 16, 2-(((2R,3R,4S,5R)-5-(6-amino-2-chloro-9H-purin-9-yl)-4-fluoro-3-hydroxytetrahydrofuran-2-yl)methoxy)-2-(3-(trifluoromethyl)benzyl)malonic acid] as the compound, how does the IC50 read?
Answer: The IC50 was 1.02 µM.

Question: How did the IC50 turn out when `Nc1nc(Cl)nc2c1ncn2[C@@H]1O[C@H](COC(Cc2ccc3ccccc3c2)(C(=O)O)C(=O)O)[C@@H](O)[C@@H]1F` [compound 17, 2-(((2R,3R,4S,5R)-5-(6-amino-2-chloro-9H-purin-9-yl)-4-fluoro-3-hydroxytetrahydrofuran-2-yl)methoxy)-2-(naphthalen-2-ylmethyl)malonic acid] was run?
Answer: The IC50 was 1.81 µM.

Question: `Nc1nc(Cl)nc2c1ncn2[C@@H]1O[C@H](COC(CCCCO)(C(=O)O)C(=O)O)[C@@H](O)[C@@H]1F` [compound 18, 2-(((2R,3R,4S,5R)-5-(6-amino-2-chloro-9H-purin-9-yl)-4-fluoro-3-hydroxytetrahydrofuran-2-yl)methoxy)-2-(4-hydroxybutyl)malonic acid] was tested. Which IC50 did it give?
Answer: Its IC50 is 6.32 µM.

Question: Which IC50 does the source give for `Nc1nc(Cl)nc2c1ncn2[C@@H]1O[C@H](COC(CC(=O)O)(C(=O)O)C(=O)O)[C@@H](O)[C@@H]1F` [compound 19, 1-(((2R,3R,4S,5R)-5-(6-amino-2-chloro-9H-purin-9-yl)-4-fluoro-3-hydroxytetrahydrofuran-2-yl)methoxy)ethane-1,1,2-tricarboxylic acid] here?
Answer: Its IC50 is 5.84 µM.

Question: `Nc1nc(Cl)nc2c1ncn2[C@@H]1O[C@H](COC(Cc2ccc(C(F)(F)F)cc2)(C(=O)O)C(=O)O)[C@@H](O)[C@@H]1F` [compound 20, 2-(((2R,3R,4S,5R)-5-(6-amino-2-chloro-9H-purin-9-yl)-4-fluoro-3-hydroxytetrahydrofuran-2-yl)methoxy)-2-(4-(trifluoromethyl)benzyl)malonic acid] was tested. Which IC50 did it give?
Answer: Its IC50 is 0.611 µM.

Question: For `CS(=O)(=O)c1ccc(CC(OC[C@H]2O[C@@H](n3cnc4c(N)nc(Cl)nc43)[C@@H](F)[C@@H]2O)(C(=O)O)C(=O)O)cc1` [compound 21, 2-(((2R,3R,4S,5R)-5-(6-amino-2-chloro-9H-purin-9-yl)-4-fluoro-3-hydroxytetrahydrofuran-2-yl)methoxy)-2-(4-(methylsulfonyl)benzyl)malonic acid], which IC50 is on record?
Answer: The IC50 was 0.51 µM.

Question: Which IC50 does the source give for `CN(C)C(=O)c1cccc(CC(OC[C@H]2O[C@@H](n3cnc4c(N)nc(Cl)nc43)[C@@H](F)[C@@H]2O)(C(=O)O)C(=O)O)c1` [compound 22] here?
Answer: The IC50 was 1.14 µM.

Question: For `Nc1nc(Cl)nc2c1ncn2[C@@H]1O[C@H](COC(Cc2ccsc2)(C(=O)O)C(=O)O)[C@@H](O)[C@@H]1F` [compound 23], which IC50 is on record?
Answer: Its IC50 is 0.48 µM.

Question: For `Nc1cccc(CC(OC[C@H]2O[C@@H](n3cnc4c(N)nc(Cl)nc43)[C@@H](F)[C@@H]2O)(C(=O)O)C(=O)O)c1` [compound 27], which IC50 is on record?
Answer: Its IC50 is 0.886 µM.

Question: For `CNC(=O)C(OC[C@H]1O[C@@H](n2cnc3c(N)nc(Cl)nc32)[C@@H](F)[C@@H]1O)P(=O)(O)O` (stereo partly drawn) [compound 29, (1-(((2R,3R,4S,5R)-5-(6-amino-2-chloro-9H-purin-9-yl)-4-fluoro-3-hydroxytetrahydrofuran-2-yl)methoxy)-2-(methylamino)-2-oxoethyl)phosphonic acid], which IC50 is on record?
Answer: The IC50 was 5.72 µM.

Question: Which IC50 does the source give for `Nc1nc(Cl)nc2c1ncn2[C@@H]1O[C@H](COC(Cc2ccc(C(F)(F)F)nc2)(C(=O)O)C(=O)O)[C@@H](O)[C@@H]1F` [compound 32, 2-(((2R,3R,4S,5R)-5-(6-amino-2-chloro-9H-purin-9-yl)-4-fluoro-3-hydroxytetrahydrofuran-2-yl)methoxy)-2-((6-(trifluoromethyl)pyridin-3-yl)methyl)malonic acid] here?
Answer: The IC50 was 2.32 µM.

Question: With `N#CCC(OC[C@H]1O[C@@H](n2cnc3c(N)nc(Cl)nc32)[C@@H](F)[C@@H]1O)(C(=O)O)C(=O)O` [compound 33, 2-(((2R,3R,4S,5R)-5-(6-amino-2-chloro-9H-purin-9-yl)-4-fluoro-3-hydroxytetrahydrofuran-2-yl)methoxy)-2-(cyanomethyl)malonic acid] as the compound, how does the IC50 read?
Answer: The IC50 was 3.38 µM.

Question: `N#Cc1ccc(CC(OC[C@H]2O[C@@H](n3cnc4c(N)nc(Cl)nc43)[C@@H](F)[C@@H]2O)(C(=O)O)C(=O)O)cc1` [compound 34] was tested. Which IC50 did it give?
Answer: Its IC50 is 0.153 µM.

Question: Which IC50 does the source give for `N#Cc1cccc(CC(OC[C@H]2O[C@@H](n3cnc4c(N)nc(Cl)nc43)[C@@H](F)[C@@H]2O)(C(=O)O)C(=O)O)c1` [compound 35] here?
Answer: The IC50 was 0.261 µM.

Question: `Nc1nc(Cl)nc2c1ncn2[C@@H]1O[C@H](COC(Cc2ccc(OC(F)(F)F)cc2)(C(=O)O)C(=O)O)[C@@H](O)[C@@H]1F` [compound 36] was tested. Which IC50 did it give?
Answer: Its IC50 is 0.197 µM.

Question: `Nc1nc(Cl)nc2c1ncn2[C@@H]1O[C@H](COC(Cc2ccc(CO)cc2)(C(=O)O)C(=O)O)[C@@H](O)[C@@H]1F` [compound 39] was tested. Which IC50 did it give?
Answer: Its IC50 is 0.493 µM.

Question: With `N#Cc1cccc(CC(OC[C@H]2O[C@@H](n3cnc4c(N)nc(N=[N+]=[N-])nc43)[C@@H](F)[C@@H]2O)(C(=O)O)C(=O)O)c1` [compound 40, 2-(((2R,3R,4S,5R)-5-(6-amino-2-azido-9H-purin-9-yl)-4-fluoro-3-hydroxytetrahydrofuran-2-yl)methoxy)-2-(3-cyanobenzyl)malonic acid] as the compound, how does the IC50 read?
Answer: Its IC50 is 2.41 µM.

Question: How did the IC50 turn out when `CC(C)(C)OC(=O)Nc1nc(N=[N+]=[N-])nc2c1ncn2[C@@H]1O[C@H](COC(Cc2cccc(C#N)c2)(C(=O)O)C(=O)O)[C@@H](O)[C@@H]1F` [compound 41] was run?
Answer: The IC50 was 4.88 µM.

Question: `Nc1nc(Cl)nc2c1ncn2[C@@H]1O[C@H](COC(Cc2cccc(C(=O)O)c2)(C(=O)O)C(=O)O)[C@@H](O)[C@@H]1F` [compound 42] was tested. Which IC50 did it give?
Answer: The IC50 was 0.887 µM.

Question: For `[N-]=[N+]=Nc1nc(N)c2ncn([C@@H]3O[C@H](COC(Cc4cccc(-c5nnn[nH]5)c4)(C(=O)O)C(=O)O)[C@@H](O)[C@@H]3F)c2n1` [compound 43], which IC50 is on record?
Answer: Its IC50 is 9.92 µM.

Question: `Nc1nc(Cl)nc2c1ncn2[C@@H]1O[C@H](COC(Cc2cccc(F)c2)(C(=O)O)C(=O)O)[C@@H](O)[C@@H]1F` [compound 44] was tested. Which IC50 did it give?
Answer: The IC50 was 1.01 µM.

Question: Which IC50 does the source give for `Nc1nc(Cl)nc2c1ncn2[C@@H]1O[C@H](COC(Cc2ccc(F)cc2)(C(=O)O)C(=O)O)[C@@H](O)[C@@H]1F` [compound 47] here?
Answer: The IC50 was 0.669 µM.

Question: Which IC50 does the source give for `COc1cccc(CC(OC[C@H]2O[C@@H](n3cnc4c(N)nc(Cl)nc43)[C@@H](F)[C@@H]2O)(C(=O)O)C(=O)O)c1` [compound 49] here?
Answer: Its IC50 is 2.38 µM.

Question: Which IC50 does the source give for `Nc1nc(Cl)nc2c1ncn2[C@@H]1O[C@H](COC(Cc2nnn[nH]2)(C(=O)O)C(=O)O)[C@@H](O)[C@@H]1F` [compound 50, 2-((1H-tetrazol-5-yl)methyl)-2-(((2R,3R,4S,5R)-5-(6-amino-2-chloro-9H-purin-9-yl)-4-fluoro-3-hydroxytetrahydrofuran-2-yl)methoxy)malonic acid] here?
Answer: The IC50 was 6.37 µM.

Question: For `Nc1nc(Cl)nc2c1ncn2[C@@H]1O[C@H](COC(Cc2ccccc2)(C(=O)O)C(=O)O)[C@@H](N)[C@H]1O` [compound 51, 2-(((2S,3S,4R,5R)-3-amino-5-(6-amino-2-chloro-9H-purin-9-yl)-4-hydroxytetrahydrofuran-2-yl)methoxy)-2-benzylmalonic acid], which IC50 is on record?
Answer: The IC50 was 4.34 µM.

Question: How did the IC50 turn out when `Nc1nc(Cl)nc2c1ncn2[C@@H]1O[C@H](COC(Cc2cccc(-c3nnn[nH]3)c2)(C(=O)O)C(=O)O)[C@@H](O)[C@@H]1F` [compound 53, 2-(3-(1H-tetrazol-5-yl)benzyl)-2-(((2R,3R,4S,5R)-5-(6-amino-2-chloro-9H-purin-9-yl)-4-fluoro-3-hydroxytetrahydrofuran-2-yl)methoxy)malonic acid] was run?
Answer: The IC50 was 2.6 µM.
